Measurements published in patent EP1627887A2, “Mouce trace amine associated receptors” (F.HOFFMANN-LA ROCHE AG, priority 2004, dated 2006).
Like-named read-outs stand apart in the source and are kept apart here.

Experiments:
Mouse TAAR 1 [1] = experiment: cAMP Biotrak EIA functional assay in HEK293 cells stably expressing the receptor
Protocol: (§1) The amount of cAMP produced by HEK293 cells stably expressing the indicated receptor in response to stimulation by each of the listed compounds was measured using the cAMP Biotrak EIA System (Amersham). Shown are the EC50 values in µM (means of at least three independent experiments; EC50 values are calculated from experiments carried out with 12 concentrations each in duplicates evenly distributed in the range of 30 µM - 0.1 nM). The maximal response is represented as percentage of the maximal cAMP levels induced by p-TYR.
(§2) cAMP assay: cAMP was assayed using the cAMP Biotrak Enzymeimmunoassay (EIA) System from Amersham as described in the product manual, following the so-called Non-acetylation EIA procdure.
(§3) In the protocol the following minor modifications were introduced: After stimulation of HEK cells in 96 well plates the reaction was stopped by applying equal volume of pre cooled (-20°C) ethanol. Lysis of cells was not achieved by applying the lysis buffer supplied with the kit, but with transferring the 96 well plates to -80°C for a minimum of 6 hrs (up to several days). Thereafter the contents of the 96 well plates was dried at 50°C over night, and the material remaining in the 96 well plates was resuspended in 200 µl of the assay buffer (the buffer used for resuspending all reagents of the kit). The resuspension were assayed in serial dilutions in assay buffer.

Mouse TAAR 1 [2] = test system: Mouse TAAR 1
Protocol: as §1, §2, §3

SMILES | EC50 (Mouse TAAR 1 [1]) [nM] | Max (Mouse TAAR 1 [1]; hek293 cells) [%] | EC50 (Mouse TAAR 1 [2]) [nM] | Max (Mouse TAAR 1 [1]; maximal response as percentage of the maximal cAMP levels induced by p-TYR, HEK293 cells stably expressing mTAAR1) [%]
CNCCc1ccc(O)cc1 [N-methyl-p-tyramine] | 1020 ± 390 | 100 | – | –
CNCCc1ccccc1 [N-methyl-β-PEA] | – | 100 | – | –
NCCc1c[nH]c2ccccc12 [TRY, tryptamine] | – | 100 | – | –
NCCc1ccccc1 [β-PEA, β-phenylethylamine] | – | 100 | – | –
NCCc1ccc(O)cc1 [p-TYR, p-tyramine] | – | – | 1370 ± 330 | 100
